Patent US20260183396A1, “CXCR3 OVEREXPRESSION IN CAR-NK CELLS PRIMES MIGRATION/HOMING INTO THE TUMOR MICROENVIRONMENT” (DANA-FARBER CANCER INSTITUTE, INC., priority 2022, published 2026)

Columns and labels:
NK cells [1] = assay: Immune cell toxicity assays, NK cells; format: cell-based; conditions: 72 hours of high dose exposure; regardless of IL-2 or co-culture with TILs
Procedure: Immune Cell Toxicity Assays. […] Following treatment, samples were stained with anti-CD45, anti-CD3, anti-CD4, anti-CD8, and anti-CD56 antibodies (Table 1), as well as Zombie Green live/dead (Biolegend 423111) and analyzed by flow cytometry as described above. Data were analyzed using FlowJo software version 10.5.3. As an orthogonal measure of viability, CellTiter-Glo was performed on primary T-cells and NK cells.
CellTiter-Glo luminescent cell viability assay. Cell viability was assessed using the CellTiter-Glo Luminescent Cell Viability assay (Promega, G7571) according to manufacturer's instructions. […] All conditions were tested in triplicate and plates were read on a Tecan Infinite Mplex Microplate Reader.

MPM tumor cell lines = assay: 3D vascular model of NK cell migration; format: cell-based, human
Procedure: 3D vascular model. To generate the tumor-vascular model, H226 spheroids were mixed with collagen rat tail hydrogel (2.5 mg/ml) and injected into the center gel region of the 3D microfluidic chamber (10-15 μL per each microfluidic chamber). After incubation for 30 minutes at 37° C. in sterile humidity chambers, the side wall of one flanked channel (media channel) was coated with a 150 μg/ml collagen solution in PBS to allow for better adhesion of eCs to the channel. After 15 mins, the channel was washed once with media. To create the 3D vessel, 25 μL cell suspension of 3×10^6 cells/ml human umbilical vein endothelial cells (HUVECs; C2519AS, Lonza) were injected in the media channel coated with collagen. The channel was rotated twice to create a confluent hollow-lumen 3D vessel. To allow the cells to attach to the media-gel interface and form a monolayer, the chip was incubated with cells face down for 15 mins. Next, 50 μL cell suspension was reinjected, and the chip was flipped to cover the upper part of the 3D vascular channel. After 90 mins of incubation in the humidity chamber at 37° C., cell culture media was gently added to both channels and further incubated to form a confluent monolayer. After vessel formation, NK cells (labelled with cell tracker) were added to the 3D vessel at 2:1 E:T ratio. […] NK cell migration+/−vessel was quantified at 24 hours. Image capture and analysis was performed using a fluorescence confocal microscope and processing software. The 3D vascular channels were rinsed in PBS and fixed with 4% PFA for 15 min at room temperature. Cell membranes were permeabilized with 0.1% Triton X-100 for 5 min at room temperature and washed twice with PBS. HUVEC cells were stained for F-actin with green phalloidin (Thermo Fisher Scientific A12379) and Hoechst 33342. Images were captured on a Nikon Eclipse 80i fluorescence microscope equipped with Z-stack (Prior) and CoolSNAP CCD camera (Roper Scientific).

NK cells [2] = conditions: systemic administration, murine models; related manuscript; cited from earlier work
STING = STING immunoblotting in NK cells and TILs; format: cell-based, human; conditions: NK cells
Procedure: Immunoblotting. […] Imaging of blots and was performed using the LI-COR Odyssey system.

CXCR3 = molecular target: T1, CXCR3 (Homo sapiens, UniProt P49682); assay: CXCR3 surface expression after hCXCL10, flow cytometry; format: cell-based; conditions: NK cells, NK92, Jurkat; 200 ng hCXCL10
T1 construct: endogenous in cells; host or cells: primary NK cells (cNK, CIML); NK92 and JURKAT CXCR3+ lines; also CAR and CAR-CXCR3 transduced NK cells
T1 sequence (P49682 1-368): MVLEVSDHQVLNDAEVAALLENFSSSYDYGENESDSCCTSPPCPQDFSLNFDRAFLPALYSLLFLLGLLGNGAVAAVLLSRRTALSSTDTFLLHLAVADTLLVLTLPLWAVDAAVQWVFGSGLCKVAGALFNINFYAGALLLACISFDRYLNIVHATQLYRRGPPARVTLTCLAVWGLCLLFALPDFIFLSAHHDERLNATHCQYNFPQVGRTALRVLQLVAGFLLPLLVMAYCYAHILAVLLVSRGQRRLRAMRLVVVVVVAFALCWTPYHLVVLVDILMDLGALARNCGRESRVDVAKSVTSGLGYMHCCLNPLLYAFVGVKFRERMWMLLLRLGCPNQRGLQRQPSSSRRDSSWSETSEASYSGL
Procedure: CXCR3 is degraded from the cell surface of primary NK cells and the NK cell lines NK92 and […] both expressing CXCR3, after stimulation with 200 ng of recombinant human C—X—C Motif Chemokine Ligand 10 (hCXCL10) at different time points, as illustrated in FIG. 17A-FIG. 18B, measured by flow cytometry and expressed as median fluorescent intensity (MFI) of the CXCR3 receptor. CXCR3 is also degraded from CAR and CAR-CXCR expressing cNK cells. FIG. 18C-FIG. 18D illustrate CXCR3 surface expression as measured by flow cytometry of primary NK cells (cNK) expressing CAR, CAR-CXCR3 or control, stimulated with 200 ng of recombinant human CXCL10 stimulation at different time points (0 and 60 minutes). CXCR3 is degraded from cNK NT, CAR-cNK, and CAR-NK CXCR+ cell surfaces after 1 hour of hCXCL10 treatment (FIG. 19C). CXCR3 is also degraded from cytokine-induced memory-like (CIML) NK NT, CIML CAR-NK, CIML CAR-NK CXCR+ after 1 hour of hCXCL10 treatment (FIG. 19D).

Nc1ncnc2c1ncn2[C@@H]1O[C@@H]2CO[P@@](=O)(S)O[C@@H]3[C@H](O)[C@@H](CO[P@@](=O)(S)O[C@H]2[C@H]1F)O[C@H]3n1cc(F)c2c(=O)nc[nH]c21 [TAK-676]
cytotoxicity in human NK cells (NK cells [1]): no significant cytotoxicity
overcoming a human vascular barrier (MPM tumor cell lines; ex vivo model): especially potent
NK cell migration (MPM tumor cell lines; presence and absence of the vascular barrier): enhanced NK cell migration
trafficking and activation of NK cells (NK cells [2]): enhanced

CCN(CC)CCCC(C)Nc1ccnc2cc(Cl)ccc12 (stereo not drawn) [chloroquine]
effect on ADU-S100 induced STING degradation (STING): prevented

hCXCL10: recombinant human C—X—C Motif Chemokine Ligand 10
CXCR3 cell surface expression (CXCR3): lost from the cell surface
